Target: T1, CFTR (Homo sapiens, UniProt P13569, DEL508-508)
T1 construct: endogenous in cells; host or cells: primary human bronchial epithelial cells from CF subjects (F508del/MF-HBE), differentiated at air-liquid interface
Assay: HBE assay: Ussing chamber assay of CFTR-mediated short-circuit currents
Format: cell-based
Details: HBE assay; for EC50: read-out: HBE EC50; for Emax: read-out: HBE Max activity (%)
Method in brief: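 CFTR-mediated Isc (μA/cm²) equals the peak response to apical 20 μM forskolin minus the residual after a 20 μM each BPO/GlyH-101/CFTR inhibitor 172 cocktail, recorded in Ussing chambers at Vhold 0 mV, 37 °C, pH 7.4, with 30 μM apical amiloride. Cells were F508del/MF HBE cultures preincubated 18-24 h with corrector (concentration range or 10 μM) plus 1 μM ivacaftor in 20% human serum.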

T1 sequence (P13569 with tags, fused parts or gaps DEL508-508): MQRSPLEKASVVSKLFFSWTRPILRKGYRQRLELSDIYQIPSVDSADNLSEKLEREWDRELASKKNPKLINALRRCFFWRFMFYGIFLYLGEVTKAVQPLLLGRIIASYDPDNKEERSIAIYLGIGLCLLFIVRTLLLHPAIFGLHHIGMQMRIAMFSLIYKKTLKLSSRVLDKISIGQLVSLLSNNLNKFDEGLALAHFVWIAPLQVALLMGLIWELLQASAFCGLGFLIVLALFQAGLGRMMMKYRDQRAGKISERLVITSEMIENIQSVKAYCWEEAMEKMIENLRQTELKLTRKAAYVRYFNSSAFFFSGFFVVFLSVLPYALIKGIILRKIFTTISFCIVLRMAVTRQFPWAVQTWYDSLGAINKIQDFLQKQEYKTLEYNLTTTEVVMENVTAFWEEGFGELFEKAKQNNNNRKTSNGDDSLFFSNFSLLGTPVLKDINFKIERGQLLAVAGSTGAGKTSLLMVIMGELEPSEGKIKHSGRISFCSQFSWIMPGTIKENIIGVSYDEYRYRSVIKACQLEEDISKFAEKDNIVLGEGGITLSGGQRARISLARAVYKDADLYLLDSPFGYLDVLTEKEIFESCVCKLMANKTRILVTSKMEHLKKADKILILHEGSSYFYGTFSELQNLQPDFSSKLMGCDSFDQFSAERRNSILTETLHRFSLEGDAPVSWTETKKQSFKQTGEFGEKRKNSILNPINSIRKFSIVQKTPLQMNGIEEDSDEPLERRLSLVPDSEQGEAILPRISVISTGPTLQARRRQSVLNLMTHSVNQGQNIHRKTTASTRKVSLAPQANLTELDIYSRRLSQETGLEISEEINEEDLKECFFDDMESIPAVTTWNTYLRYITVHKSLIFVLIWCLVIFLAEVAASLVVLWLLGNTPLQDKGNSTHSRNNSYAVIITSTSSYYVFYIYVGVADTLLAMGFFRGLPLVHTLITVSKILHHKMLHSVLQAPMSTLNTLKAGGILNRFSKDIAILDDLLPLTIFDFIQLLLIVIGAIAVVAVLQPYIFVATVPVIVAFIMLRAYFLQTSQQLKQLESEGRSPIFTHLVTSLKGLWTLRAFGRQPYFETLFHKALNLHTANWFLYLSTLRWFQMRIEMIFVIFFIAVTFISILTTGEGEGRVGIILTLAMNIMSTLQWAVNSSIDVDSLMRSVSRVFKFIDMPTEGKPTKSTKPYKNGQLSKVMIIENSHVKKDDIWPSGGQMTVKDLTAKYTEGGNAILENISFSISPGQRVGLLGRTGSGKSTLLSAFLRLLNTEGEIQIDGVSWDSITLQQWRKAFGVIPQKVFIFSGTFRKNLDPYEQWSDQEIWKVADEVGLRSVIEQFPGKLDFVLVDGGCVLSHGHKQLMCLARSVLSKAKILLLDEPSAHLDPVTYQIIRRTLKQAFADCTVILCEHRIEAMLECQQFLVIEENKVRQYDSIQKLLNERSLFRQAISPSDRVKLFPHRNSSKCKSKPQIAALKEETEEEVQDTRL

Compound | EC50 | Emax | activation at 10 µM (10 μM, read-out: HBE Activity at 10 μM (%))
COCCN(c1ccc(C)c(CN2C(=O)c3cccc(c3)S(=O)(=O)Nc3nc(cc(-c4c(C)cccc4C)n3)OC[C@H]2CC(C)(C)C)n1)C(C)C [Compound 1343] | < 1 µM | > 60% | 
COCC(C)Oc1cnc(CN2C(=O)c3cccc(c3)S(=O)(=O)Nc3nc(cc(-c4c(C)cccc4C)n3)OC[C@H]2CC(C)(C)C)nc1 (stereo partly shown) [Compound 1344] | < 1 µM | > 60% | 
CCC(C)Oc1cnc(CN2C(=O)c3cccc(c3)S(=O)(=O)Nc3nc(cc(-c4c(C)cccc4C)n3)OC[C@H]2CC(C)(C)C)nc1 (stereo partly shown) [Compound 1345] | < 1 µM | > 60% | 
Cc1cccc(C)c1-c1cc2nc(n1)NS(=O)(=O)c1cccc(c1)C(=O)N(Cc1cccc(N(C)C3CCOC3)n1)[C@H](CC(C)(C)C)CO2 (stereo partly shown) [Compound 1347] | < 1 µM | > 60% | 
Cc1cccc(C)c1-c1cc2nc(n1)NS(=O)(=O)c1cccc(c1)C(=O)N(Cc1cncc(NC3CCCC34CCC4)n1)[C@H](CC(C)(C)C)CO2 (stereo partly shown) [Compound 1348] | < 1 µM | > 60% | 
Cc1cccc(C)c1-c1cc2nc(n1)NS(=O)(=O)c1cccc(c1)C(=O)N(Cc1cncc(N(C)C3CCOC3)n1)[C@H](CC(C)(C)C)CO2 (stereo partly shown) [Compound 1349] | < 1 µM | > 60% | 
Cc1cccc(C)c1-c1cc2nc(n1)NS(=O)(=O)c1cccc(c1)C(=O)N(Cc1ncc(OC(C)C)cc1C#N)[C@H](CC(C)(C)C)CO2 [Compound 1351] | < 1 µM | > 60% | 
Cc1cccc(C)c1-c1cc2nc(n1)NS(=O)(=O)c1cccc(c1)C(=O)N(Cc1cccc(NC3CCOC3)n1)[C@H](CC(C)(C)C)CO2 (stereo partly shown) [Compound 1352] | < 1 µM | > 60% | 
Cc1cccc(C)c1-c1cc2nc(n1)NS(=O)(=O)c1cccc(c1)C(=O)N(Cc1cncc(NC3CCOC3)n1)[C@H](CC(C)(C)C)CO2 (stereo partly shown) [Compound 1353] | < 1 µM | > 60% | 
Cc1cccc(C)c1-c1cc2nc(n1)NS(=O)(=O)c1cccc(c1)C(=O)N(Cc1cccc(N(C)CC3(C)CC3)n1)[C@H](CC(C)(C)C)CO2 [Compound 1354] | < 1 µM | > 60% | 
Cc1cccc(C)c1-c1cc2nc(n1)NS(=O)(=O)c1cccc(c1)C(=O)N(Cc1cccc(N(C)C3CCCC3)n1)[C@H](CC(C)(C)C)CO2 [Compound 1355] | < 1 µM | > 60% | 
CCN(C)c1ccnc(CN2C(=O)c3cccc(c3)S(=O)(=O)Nc3nc(cc(-c4c(C)cccc4C)n3)OC[C@H]2CC(C)(C)C)n1 [Compound 1357] | < 1 µM | > 60% | 
Cc1cccc(C)c1-c1cc2nc(n1)NS(=O)(=O)c1cccc(c1)C(=O)N(Cc1coc(N3CCOCC3)n1)[C@H](CC(C)(C)C)CO2 [Compound 1358] | < 1 µM | > 60% | 
Cc1cccc(C)c1-c1cc2nc(n1)NS(=O)(=O)c1cccc(c1)C(=O)N(Cc1ncc(OCC3(C)COC3)cn1)[C@H](CC(C)(C)C)CO2 [Compound 1360] | < 1 µM | > 60% | 
Cc1cccc(C)c1-c1cc2nc(n1)NS(=O)(=O)c1cccc(c1)C(=O)N(Cc1ncc3c(n1)CCOC3)[C@H](CC(C)(C)C)CO2 [Compound 1362] |  |  | > 60%
COCCOc1cnc(CN2C(=O)c3cccc(c3)S(=O)(=O)Nc3nc(cc(-c4c(C)cccc4C)n3)OC[C@H]2CC(C)(C)C)c(F)c1 [Compound 1364] | < 1 µM | > 60% | 
Cc1cccc(C)c1-c1cc2nc(n1)NS(=O)(=O)c1cccc(c1)C(=O)N(Cc1ncc(N3CC(C)(C)CC3=O)cn1)[C@H](CC(C)(C)C)CO2 [Compound 1365] | < 1 µM | > 60% | 
COCCN(CC(C)(C)C)c1cncc(CN2C(=O)c3cccc(c3)S(=O)(=O)Nc3nc(cc(-c4c(C)cccc4C)n3)OC[C@H]2CC(C)(C)C)n1 [Compound 1367] | < 1 µM | > 60% | 
Cc1cccc(C)c1-c1cc2nc(n1)NS(=O)(=O)c1cccc(c1)C(=O)N(Cc1ncc(OC3CCOCC3)cc1F)[C@H](CC(C)(C)C)CO2 [Compound 1368] | < 1 µM | > 60% | 

Continued, values first:

EC50 | Emax | activation at 10 µM (10 μM, read-out: HBE Activity at 10 μM (%)) | Compound
< 1 µM | > 60% |  | CO[C@H]1C[C@@H](Oc2cnc(CN3C(=O)c4cccc(c4)S(=O)(=O)Nc4nc(cc(-c5c(C)cccc5C)n4)OC[C@H]3CC(C)(C)C)nc2)C1 [Compound 1369]
< 1 µM | > 60% |  | Cc1cccc(C)c1-c1cc2nc(n1)NS(=O)(=O)c1cccc(c1)C(=O)N(Cc1ncc(OC3CCC3)cc1F)[C@H](CC(C)C)CO2 [Compound 1370]
< 1 µM | > 60% |  | Cc1cccc(C)c1-c1cc2nc(n1)NS(=O)(=O)c1cccc(c1)C(=O)N(Cc1cccc(N(C)C3CCOCC3)n1)[C@H](CC(C)(C)C)CO2 [Compound 1371]
< 1 µM | > 60% |  | COCCN(CC(C)C)c1cccc(CN2C(=O)c3cccc(c3)S(=O)(=O)Nc3nc(cc(-c4c(C)cccc4C)n3)OC[C@H]2CC(C)(C)C)n1 [Compound 1372]
< 1 µM | > 60% |  | Cc1cc(NC(C)C)cnc1CN1C(=O)c2cccc(c2)S(=O)(=O)Nc2nc(cc(-c3c(C)cccc3C)n2)OC[C@H]1CC(C)(C)C [Compound 1373]
< 1 µM |  |  | CCC(C)Oc1cnc(CN2C(=O)c3cccc(c3)S(=O)(=O)Nc3nc(cc(-c4c(C)cccc4C)n3)OC[C@H]2CC(C)(C)C)nc1 (stereo partly shown) [Compound 1374]
< 1 µM | > 60% |  | CC[C@@H](C)Oc1cnc(CN2C(=O)c3cccc(c3)S(=O)(=O)Nc3nc(cc(-c4c(C)cccc4C)n3)OC[C@H]2CC(C)(C)C)nc1 [Compound 1375]
< 1 µM | > 60% |  | Cc1cccc(C)c1-c1cc2nc(n1)NS(=O)(=O)c1cccc(c1)C(=O)N(Cc1nc(OCC(C)C)ccc1F)[C@H](CC(C)(C)C)CO2 [Compound 1376]
< 1 µM | > 60% |  | Cc1cccc(C)c1-c1cc2nc(n1)NS(=O)(=O)c1cccc(c1)C(=O)N(Cc1ncc(O[C@H](C)C(C)C)cn1)[C@H](CC(C)(C)C)CO2 [Compound 1377]
< 1 µM | > 60% |  | Cc1cccc(C)c1-c1cc2nc(n1)NS(=O)(=O)c1cccc(c1)C(=O)N(Cc1ncc(N3CCC(F)(F)C3)cn1)[C@H](CC(C)(C)C)CO2 [Compound 1379]
< 1 µM | > 60% |  | COCCOc1cnc(CN2C(=O)c3cccc(c3)S(=O)(=O)Nc3nc(cc(-c4c(C)cccc4C)n3)OC[C@H]2CC(C)(C)C)nc1 [Compound 1380]
< 1 µM | > 60% |  | COCCN(C)c1cnc(CN2C(=O)c3cccc(c3)S(=O)(=O)Nc3nc(cc(-c4c(C)cccc4C)n3)OC[C@H]2CC(C)(C)C)c(C)c1 [Compound 1381]
< 1 µM | > 60% |  | COCCOc1cnc(CN2C(=O)c3cccc(c3)S(=O)(=O)Nc3nc(cc(-c4c(C)cccc4C)n3)OC[C@H]2CC(C)(C)C)c(C)c1 [Compound 1382]
< 1 µM | > 60% |  | Cc1cccc(C)c1-c1cc2nc(n1)NS(=O)(=O)c1cccc(c1)C(=O)N(Cc1cncc(N3CCCC3C(C)C)n1)[C@H](CC(C)(C)C)CO2 (stereo partly shown) [Compound 1383]
< 1 µM |  |  | Cc1cccc(C)c1-c1cc2nc(n1)NS(=O)(=O)c1cccc(c1)C(=O)N(Cc1cncc(N3CCCC3C(C)C)n1)[C@H](CC(C)(C)C)CO2 (stereo partly shown) [Compound 1384]
< 1 µM | > 60% |  | COCCCOc1cnc(CN2C(=O)c3cccc(c3)S(=O)(=O)Nc3nc(cc(-c4c(C)cccc4C)n3)OC[C@H]2CC(C)(C)C)c(F)c1 [Compound 1385]
